Assay results from ChEMBL document CHEMBL5291721, “A preclinical secondary pharmacology resource illuminates target-adverse drug reaction associations of marketed drugs” (Nat Commun, 2023).

Columns and labels:
[1] = molecular target: T1, Muscarinic acetylcholine receptor M1 (Homo sapiens, UniProt P11229); assay type: functional, cell-based
T1 sequence (P11229 whole entry): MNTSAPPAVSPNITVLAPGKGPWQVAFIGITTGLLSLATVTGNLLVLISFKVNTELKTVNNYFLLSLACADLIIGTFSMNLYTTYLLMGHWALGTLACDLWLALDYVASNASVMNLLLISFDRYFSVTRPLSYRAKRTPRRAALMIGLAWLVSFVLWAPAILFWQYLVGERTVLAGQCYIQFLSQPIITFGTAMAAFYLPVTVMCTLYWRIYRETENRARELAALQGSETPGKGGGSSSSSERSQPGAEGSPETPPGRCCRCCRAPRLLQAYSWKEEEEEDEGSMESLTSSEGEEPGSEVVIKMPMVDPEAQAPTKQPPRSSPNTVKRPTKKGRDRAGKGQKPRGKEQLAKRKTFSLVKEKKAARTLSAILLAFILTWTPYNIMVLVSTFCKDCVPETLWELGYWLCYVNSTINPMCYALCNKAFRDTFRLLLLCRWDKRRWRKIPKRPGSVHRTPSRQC

[2] = molecular target: T2, Alpha-2A adrenergic receptor (Homo sapiens, UniProt P08913); assay type: functional, cell-based
T2 sequence (P08913 whole entry): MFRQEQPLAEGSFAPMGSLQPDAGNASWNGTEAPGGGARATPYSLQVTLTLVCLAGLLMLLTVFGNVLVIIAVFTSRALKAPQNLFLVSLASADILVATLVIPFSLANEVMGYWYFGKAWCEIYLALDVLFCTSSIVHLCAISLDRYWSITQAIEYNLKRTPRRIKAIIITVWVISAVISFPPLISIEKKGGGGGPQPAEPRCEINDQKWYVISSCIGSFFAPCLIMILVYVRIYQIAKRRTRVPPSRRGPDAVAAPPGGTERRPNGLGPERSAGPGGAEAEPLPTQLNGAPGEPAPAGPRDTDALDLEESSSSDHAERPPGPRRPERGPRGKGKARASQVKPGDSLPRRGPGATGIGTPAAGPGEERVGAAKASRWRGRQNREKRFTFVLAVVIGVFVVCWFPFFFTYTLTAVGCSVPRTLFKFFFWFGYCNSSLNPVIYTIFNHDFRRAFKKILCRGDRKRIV

[3] = molecular target: T3, 5-hydroxytryptamine receptor 2C (Homo sapiens, UniProt P28335)
T3 sequence (P28335 whole entry): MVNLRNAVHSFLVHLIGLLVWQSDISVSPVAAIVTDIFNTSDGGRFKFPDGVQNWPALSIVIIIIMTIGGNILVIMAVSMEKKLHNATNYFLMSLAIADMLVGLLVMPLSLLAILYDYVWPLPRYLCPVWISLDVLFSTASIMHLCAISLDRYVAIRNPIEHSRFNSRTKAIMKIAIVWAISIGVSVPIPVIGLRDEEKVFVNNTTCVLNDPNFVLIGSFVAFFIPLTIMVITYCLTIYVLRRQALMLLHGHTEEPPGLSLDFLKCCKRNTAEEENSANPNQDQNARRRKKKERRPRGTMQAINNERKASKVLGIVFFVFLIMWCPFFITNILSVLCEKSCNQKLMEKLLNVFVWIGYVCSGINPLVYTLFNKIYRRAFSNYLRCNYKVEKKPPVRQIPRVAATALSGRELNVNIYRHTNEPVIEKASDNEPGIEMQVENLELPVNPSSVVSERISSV

[4] = molecular target: Glutamate receptor ionotropic, NMDA 1 (Rattus norvegicus, UniProt P35439)
[5] = molecular target: cGMP-inhibited 3',5'-cyclic phosphodiesterase 3A (Homo sapiens, UniProt Q14432); assay type: functional
Cannabinoid receptor 1 = Cannabinoid receptor 1 (Homo sapiens, UniProt P21554)
[6] = molecular target: Beta-2 adrenergic receptor (Homo sapiens, UniProt P07550)
[7] = molecular target: T4, Alpha-2C adrenergic receptor (Homo sapiens, UniProt P18825); assay type: functional
T4 sequence (P18825 whole entry): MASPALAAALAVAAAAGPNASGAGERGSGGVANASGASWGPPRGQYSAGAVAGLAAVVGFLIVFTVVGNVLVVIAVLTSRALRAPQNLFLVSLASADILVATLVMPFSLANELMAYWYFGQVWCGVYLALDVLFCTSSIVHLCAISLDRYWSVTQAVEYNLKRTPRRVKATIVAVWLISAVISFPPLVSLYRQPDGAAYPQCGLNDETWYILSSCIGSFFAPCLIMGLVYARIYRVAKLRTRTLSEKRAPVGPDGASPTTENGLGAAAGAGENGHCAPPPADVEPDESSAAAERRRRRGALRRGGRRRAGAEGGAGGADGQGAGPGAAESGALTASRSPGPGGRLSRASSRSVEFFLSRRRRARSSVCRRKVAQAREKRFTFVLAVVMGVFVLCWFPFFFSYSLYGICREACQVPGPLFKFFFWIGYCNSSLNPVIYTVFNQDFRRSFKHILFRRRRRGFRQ

[8] = molecular target: T5, 5-hydroxytryptamine receptor 3A (Homo sapiens, UniProt P46098); assay type: functional
T5 sequence (P46098 whole entry): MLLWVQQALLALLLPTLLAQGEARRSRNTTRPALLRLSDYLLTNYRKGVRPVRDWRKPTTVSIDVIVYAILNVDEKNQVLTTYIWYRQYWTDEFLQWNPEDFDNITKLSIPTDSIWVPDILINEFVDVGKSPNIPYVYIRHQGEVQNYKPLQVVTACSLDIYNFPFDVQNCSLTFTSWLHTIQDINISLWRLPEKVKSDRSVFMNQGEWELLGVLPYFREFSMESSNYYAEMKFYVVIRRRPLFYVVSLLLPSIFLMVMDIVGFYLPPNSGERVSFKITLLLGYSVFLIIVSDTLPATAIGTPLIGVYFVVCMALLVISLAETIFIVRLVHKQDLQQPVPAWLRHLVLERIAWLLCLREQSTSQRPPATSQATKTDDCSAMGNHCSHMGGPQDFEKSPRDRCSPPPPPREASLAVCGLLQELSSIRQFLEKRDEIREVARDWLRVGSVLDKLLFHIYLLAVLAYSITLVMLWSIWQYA
Note: assay procedure not described here.

Sequence of cGMP-inhibited 3',5'-cyclic phosphodiesterase 3A (Q14432 whole entry): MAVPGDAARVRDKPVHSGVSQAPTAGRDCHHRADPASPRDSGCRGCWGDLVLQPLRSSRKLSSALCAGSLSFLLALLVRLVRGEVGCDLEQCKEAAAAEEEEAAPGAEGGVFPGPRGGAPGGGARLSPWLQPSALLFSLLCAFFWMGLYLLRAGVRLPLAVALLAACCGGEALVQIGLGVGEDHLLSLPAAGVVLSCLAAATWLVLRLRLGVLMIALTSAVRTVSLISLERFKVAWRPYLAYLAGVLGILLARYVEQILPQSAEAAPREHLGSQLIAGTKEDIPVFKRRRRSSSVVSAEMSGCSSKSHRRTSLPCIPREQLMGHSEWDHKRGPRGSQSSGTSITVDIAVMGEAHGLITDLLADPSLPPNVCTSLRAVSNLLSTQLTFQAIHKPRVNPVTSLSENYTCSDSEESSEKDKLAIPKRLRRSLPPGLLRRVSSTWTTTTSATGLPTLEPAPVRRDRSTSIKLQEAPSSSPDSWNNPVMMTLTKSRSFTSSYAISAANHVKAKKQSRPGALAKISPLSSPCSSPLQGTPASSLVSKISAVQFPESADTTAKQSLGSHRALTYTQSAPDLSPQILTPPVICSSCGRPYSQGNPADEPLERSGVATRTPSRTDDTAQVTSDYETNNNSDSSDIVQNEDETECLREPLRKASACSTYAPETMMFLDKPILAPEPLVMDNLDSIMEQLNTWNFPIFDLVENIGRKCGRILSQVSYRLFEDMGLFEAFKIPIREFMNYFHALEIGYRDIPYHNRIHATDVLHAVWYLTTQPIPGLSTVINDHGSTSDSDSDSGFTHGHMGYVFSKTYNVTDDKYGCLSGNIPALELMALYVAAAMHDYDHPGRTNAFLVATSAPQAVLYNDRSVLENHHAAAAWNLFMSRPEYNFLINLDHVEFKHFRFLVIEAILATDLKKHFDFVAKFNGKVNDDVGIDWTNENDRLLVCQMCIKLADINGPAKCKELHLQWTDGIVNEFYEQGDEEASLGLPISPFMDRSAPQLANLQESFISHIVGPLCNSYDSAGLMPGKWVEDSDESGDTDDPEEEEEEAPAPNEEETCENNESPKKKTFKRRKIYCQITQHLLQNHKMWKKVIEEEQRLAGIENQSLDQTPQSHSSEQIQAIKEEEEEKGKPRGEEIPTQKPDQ
Sequence of Beta-2 adrenergic receptor (P07550 whole entry): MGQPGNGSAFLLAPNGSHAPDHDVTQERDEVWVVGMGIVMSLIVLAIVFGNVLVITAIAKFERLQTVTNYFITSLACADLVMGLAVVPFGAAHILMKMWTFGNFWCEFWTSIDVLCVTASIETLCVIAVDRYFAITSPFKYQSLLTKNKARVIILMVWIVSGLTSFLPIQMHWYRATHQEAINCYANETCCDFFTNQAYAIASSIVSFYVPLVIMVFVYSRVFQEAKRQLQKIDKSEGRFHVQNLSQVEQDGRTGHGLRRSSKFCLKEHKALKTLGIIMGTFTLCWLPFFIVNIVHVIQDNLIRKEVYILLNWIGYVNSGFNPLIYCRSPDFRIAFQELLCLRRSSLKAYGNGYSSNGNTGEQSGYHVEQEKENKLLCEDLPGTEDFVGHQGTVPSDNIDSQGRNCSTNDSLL
Sequence of Cannabinoid receptor 1 (P21554 whole entry): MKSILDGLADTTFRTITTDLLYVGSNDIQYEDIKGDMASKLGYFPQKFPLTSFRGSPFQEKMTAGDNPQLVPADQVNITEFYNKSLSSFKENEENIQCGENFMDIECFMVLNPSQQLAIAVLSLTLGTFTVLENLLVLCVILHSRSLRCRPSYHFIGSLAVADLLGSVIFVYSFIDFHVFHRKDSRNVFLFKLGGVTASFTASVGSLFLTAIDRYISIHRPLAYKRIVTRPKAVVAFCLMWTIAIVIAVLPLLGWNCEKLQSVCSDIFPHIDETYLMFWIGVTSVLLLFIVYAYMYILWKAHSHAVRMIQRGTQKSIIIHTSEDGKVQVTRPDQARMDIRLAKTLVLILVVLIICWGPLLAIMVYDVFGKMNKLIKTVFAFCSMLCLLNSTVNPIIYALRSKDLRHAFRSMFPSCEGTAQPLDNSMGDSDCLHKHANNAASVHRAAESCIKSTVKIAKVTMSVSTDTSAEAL

CC[C@H](c1ccc(O)cc1)[C@@H](CC)c1ccc(O)cc1 [HEXESTROL]
AC50 [1]: > 3 µM

N#Cc1ccc2c(c1)N(CCCN1CCC(O)CC1)c1ccccc1S2 [PERICIAZINE]
AC50 [1]: 5.58 µM

OC[C@H]1O[C@@H](c2ccc(Cl)c(Cc3ccc(O[C@H]4CCOC4)cc3)c2)[C@H](O)[C@@H](O)[C@@H]1O [EMPAGLIFLOZIN]
AC50 [1]: > 30 µM

C/C=C/C/C=C/CCC(=O)[C@H]1O[C@H]1C(N)=O [CERULENIN]
AC50 [1]: > 30 µM

CCn1cc(C(=O)O)c(=O)c2cc3c(cc21)OCO3 [OXOLINIC ACID]
AC50 [1]: > 30 µM

CCOC(=O)C1=C[C@@H](OC(CC)CC)[C@H](NC(C)=O)[C@@H](N)C1 [OSELTAMIVIR]
AC50 [1]: > 30 µM

Cc1onc(-c2ccccc2)c1C(=O)N[C@@H]1C(=O)N2[C@@H]1SC(C)(C)[C@@H]2C(=O)O [OXACILLIN]
AC50 [1]: > 30 µM

CC(CN1CC(=O)NC(=O)C1)N1CC(=O)NC(=O)C1 (stereo not given) [RAZOXANE]
AC50 [1]: > 30 µM

CC(C)OC(=O)CCC/C=C\C[C@@H]1[C@@H](/C=C/C(F)(F)COc2ccccc2)[C@H](O)C[C@@H]1O [TAFLUPROST]
AC50 [1]: > 30 µM

Nc1ccc(C(=O)Oc2ccccc2)c(O)c1 [PHENYL AMINOSALICYLATE]
AC50 [1]: 17.1 µM

C=CCN1CC[C@]23CCCC[C@H]2[C@H]1Cc1ccc(O)cc13 [LEVALLORPHAN]
AC50 [1]: > 30 µM

N[C@@H](CO)C(=O)O [SERINE]
AC50 [1]: > 30 µM

[H]/N=C(\N/C(=N/[H])Nc1ccc(Cl)cc1)NC(C)C [PROGUANIL]
AC50 [1]: > 30 µM

Cc1ccccc1C(=O)Nc1ccc(C(=O)N2CCCC(N(C)C)c3ccccc32)cc1 (stereo not given) [MOZAVAPTAN]
AC50 [1]: 23.7 µM

COc1c2ccoc2cc2oc(=O)ccc12 [BERGAPTEN]
AC50 [1]: > 30 µM

N[C@@H](CS)C(=O)O [CYSTEINE]
AC50 [1]: > 30 µM

C=CC[C@@H]1/C=C(\C)C[C@H](C)C[C@H](OC)[C@H]2O[C@@](O)(C(=O)C(=O)N3CCCC[C@H]3C(=O)O[C@H](/C(C)=C/[C@@H]3CC[C@@H](O)[C@H](OC)C3)[C@H](C)[C@@H](O)CC1=O)[C@H](C)C[C@@H]2OC [TACROLIMUS ANHYDROUS]
AC50 [2]: > 10 µM
AC50 [3]: > 30 µM
AC50 [4]: > 10 µM
AC50 [5]: > 30 µM
AC50 (Cannabinoid receptor 1): > 10 µM
AC50 [6]: > 10 µM
AC50 [7]: > 30 µM
AC50 [8]: > 30 µM

CC(C)C[C@H](NC(=O)CNC(=O)c1cc(Cl)ccc1Cl)B(O)O [IXAZOMIB]
AC50 [1]: > 30 µM

O=C(O)c1cc(/N=N/c2ccc(O)c(C(=O)O)c2)ccc1O [OLSALAZINE]
AC50 [1]: > 30 µM

CN1CCCCC1CCN1c2ccccc2Sc2ccc([S+](C)[O-])cc21 (stereo not given) [MESORIDAZINE]
AC50 [1]: > 30 µM

O=C1/C(=C2\Nc3ccc(S(=O)(=O)O)cc3C2=O)Nc2ccc(S(=O)(=O)O)cc21 [INDIGOTINDISULFONATE]
AC50 [1]: > 30 µM

C[C@]12C=CC(=O)N[C@@H]1CC[C@@H]1[C@@H]2CC[C@]2(C)[C@@H](C(=O)Nc3cc(C(F)(F)F)ccc3C(F)(F)F)CC[C@@H]12 [DUTASTERIDE]
AC50 [2]: > 10 µM
AC50 [3]: > 30 µM
AC50 [4]: > 10 µM
AC50 [5]: > 30 µM
AC50 (Cannabinoid receptor 1): > 10 µM
AC50 [6]: > 10 µM
AC50 [7]: > 10 µM
AC50 [8]: > 30 µM

COc1ccccc1Oc1c(NS(=O)(=O)c2ccc(C(C)(C)C)cc2)nc(-c2ncccn2)nc1OCCO [BOSENTAN]
AC50 [2]: > 10 µM
AC50 [3]: > 30 µM
AC50 [4]: > 10 µM
AC50 [5]: > 30 µM
AC50 (Cannabinoid receptor 1): > 10 µM
AC50 [6]: > 10 µM
AC50 [7]: > 10 µM
AC50 [8]: > 30 µM

FC(F)(F)c1ccc(CNc2ccc(Cc3c[nH]c4ncc(Cl)cc34)cn2)cn1 [PEXIDARTINIB]
AC50 [1]: 0.389 µM

CN1CCC(=C2c3ccccc3Sc3ccccc32)CC1 [PIMETHIXENE]
AC50 [1]: 0.0216 µM

COc1ccc(CC2c3cc(OC)c(OC)cc3CC[N+]2(C)CCC(=O)OCCCCCOC(=O)CC[N+]2(C)CCc3cc(OC)c(OC)cc3C2Cc2ccc(OC)c(OC)c2)cc1OC (stereo not given)
AC50 [2]: 3.6 µM
AC50 [3]: 6.3 µM
AC50 [4]: > 30 µM
AC50 [5]: > 30 µM
AC50 (Cannabinoid receptor 1): > 30 µM
AC50 [6]: > 30 µM
AC50 [7]: 2.7 µM
AC50 [8]: > 30 µM

N[C@@H](CC(=O)N1CCn2c(nnc2C(F)(F)F)C1)Cc1cc(F)c(F)cc1F [SITAGLIPTIN]
AC50 [2]: > 30 µM
AC50 [3]: > 30 µM
AC50 [4]: > 10 µM
AC50 [5]: > 30 µM
AC50 (Cannabinoid receptor 1): > 10 µM
AC50 [6]: > 10 µM
AC50 [7]: > 30 µM
AC50 [8]: > 30 µM

CC(C(=O)O)c1ccc2c(c1)[nH]c1ccc(Cl)cc12 (stereo not given) [CARPROFEN]
AC50 [2]: > 10 µM
AC50 [3]: > 30 µM
AC50 [4]: > 10 µM
AC50 [5]: > 30 µM
AC50 (Cannabinoid receptor 1): > 10 µM
AC50 [6]: > 10 µM
AC50 [7]: > 10 µM
AC50 [8]: > 30 µM

CC(C)(O)CNc1nc(Nc2ccnc(C(F)(F)F)c2)nc(-c2cccc(C(F)(F)F)n2)n1 [ENASIDENIB]
AC50 [1]: 23.9 µM

CN1C(C(=O)Nc2ccccn2)=C(O)c2ccccc2S1(=O)=O [PIROXICAM]
AC50 [2]: > 10 µM
AC50 [3]: > 30 µM
AC50 [4]: > 10 µM
AC50 [5]: > 30 µM
AC50 (Cannabinoid receptor 1): > 10 µM
AC50 [6]: > 10 µM
AC50 [7]: > 30 µM
AC50 [8]: > 30 µM

CNC(=O)Oc1cccc2ccccc12 [CARBARIL]
AC50 [1]: > 30 µM

CC[C@H](C)C[C@H](C)CCCCCCCCC(=O)N[C@H]1C[C@@H](O)[C@@H](NCCN)NC(=O)[C@@H]2[C@@H](O)CCN2C(=O)[C@H]([C@H](O)CCN)NC(=O)[C@H]([C@H](O)[C@@H](O)c2ccc(O)cc2)NC(=O)[C@@H]2C[C@@H](O)CN2C(=O)[C@H]([C@@H](C)O)NC1=O [CASPOFUNGIN]
AC50 [1]: 15.7 µM

O=C1CN(/N=C/c2ccc(-c3ccc([N+](=O)[O-])cc3)o2)C(O)=N1 [DANTROLENE]
AC50 [2]: > 10 µM
AC50 [3]: > 30 µM
AC50 [4]: > 10 µM
AC50 [5]: > 30 µM
AC50 (Cannabinoid receptor 1): > 10 µM
AC50 [6]: > 10 µM
AC50 [7]: > 10 µM
AC50 [8]: > 30 µM

CC(N)C12CC3CC(CC(C3)C1)C2 (stereo not given) [RIMANTADINE]
AC50 [2]: > 10 µM
AC50 [3]: > 30 µM
AC50 [4]: > 10 µM
AC50 [5]: > 30 µM
AC50 (Cannabinoid receptor 1): > 10 µM
AC50 [6]: > 10 µM
AC50 [7]: > 10 µM
AC50 [8]: > 30 µM

CC(C)Cc1ccc(C(C)C(=O)O)cc1 (stereo not given) [IBUPROFEN]
AC50 [2]: > 10 µM
AC50 [3]: > 30 µM
AC50 [4]: > 10 µM
AC50 [5]: > 30 µM
AC50 (Cannabinoid receptor 1): > 10 µM
AC50 [6]: > 10 µM
AC50 [7]: > 10 µM
AC50 [8]: > 30 µM
